Measurements from ChEMBL document CHEMBL3393039, “Anthranilic acid derivatives as nuclear receptor modulators--development of novel PPAR selective and dual PPAR/FXR ligands” (Bioorg Med Chem, 2015).
Active and inactive are the calls of the source. No cut-off for these calls is given here.

Tests used:
[1] = biological target: T1, Peroxisome proliferator-activated receptor alpha (Homo sapiens) (UniProt Q07869); assay: Transactivation of Gal4-tagged PPARalpha ligand binding domain (unknown origin) expressed in COS7 cells at 30 uM measured after overnight incubation by luciferase reporter gene assay; assay type: cell-based; settings: COS-7
T1 sequence (whole entry): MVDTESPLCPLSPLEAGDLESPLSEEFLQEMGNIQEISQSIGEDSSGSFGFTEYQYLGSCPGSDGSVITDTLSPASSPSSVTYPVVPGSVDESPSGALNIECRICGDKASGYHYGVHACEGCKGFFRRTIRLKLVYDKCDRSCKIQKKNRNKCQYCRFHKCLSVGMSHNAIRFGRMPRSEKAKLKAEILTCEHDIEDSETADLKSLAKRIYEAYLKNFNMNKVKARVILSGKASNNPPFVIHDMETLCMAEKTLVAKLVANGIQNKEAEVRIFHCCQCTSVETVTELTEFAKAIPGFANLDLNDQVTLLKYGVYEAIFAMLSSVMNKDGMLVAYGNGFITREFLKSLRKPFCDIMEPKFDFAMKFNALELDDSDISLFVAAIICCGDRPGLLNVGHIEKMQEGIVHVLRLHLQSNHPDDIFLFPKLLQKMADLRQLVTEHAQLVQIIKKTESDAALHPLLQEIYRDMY

[2] = biological target: T2, Peroxisome proliferator-activated receptor delta (Homo sapiens) (UniProt Q03181); assay: Transactivation of Gal4-tagged PPARdelta ligand binding domain (unknown origin) expressed in COS7 cells at 30 uM measured after overnight incubation by luciferase reporter gene assay; assay type: cell-based; settings: COS-7
T2 sequence (whole entry): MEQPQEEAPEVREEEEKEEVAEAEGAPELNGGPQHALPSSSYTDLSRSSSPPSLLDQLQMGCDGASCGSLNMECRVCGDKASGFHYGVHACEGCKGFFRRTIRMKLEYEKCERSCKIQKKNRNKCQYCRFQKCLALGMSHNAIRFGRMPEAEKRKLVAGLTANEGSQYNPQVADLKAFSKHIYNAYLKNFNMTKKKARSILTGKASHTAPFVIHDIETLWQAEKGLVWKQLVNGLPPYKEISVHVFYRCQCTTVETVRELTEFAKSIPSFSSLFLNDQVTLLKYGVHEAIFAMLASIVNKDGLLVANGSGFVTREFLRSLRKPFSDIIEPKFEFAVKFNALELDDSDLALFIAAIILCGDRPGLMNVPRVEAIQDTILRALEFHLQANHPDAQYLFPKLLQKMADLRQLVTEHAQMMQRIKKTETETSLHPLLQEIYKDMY

[3] = biological target: T3, Peroxisome proliferator-activated receptor gamma (Homo sapiens) (UniProt P37231); assay: Transactivation of Gal4-tagged PPARgamma ligand binding domain (unknown origin) expressed in COS7 cells at 30 uM measured after overnight incubation by luciferase reporter gene assay; assay type: cell-based; settings: COS-7
T3 sequence (whole entry): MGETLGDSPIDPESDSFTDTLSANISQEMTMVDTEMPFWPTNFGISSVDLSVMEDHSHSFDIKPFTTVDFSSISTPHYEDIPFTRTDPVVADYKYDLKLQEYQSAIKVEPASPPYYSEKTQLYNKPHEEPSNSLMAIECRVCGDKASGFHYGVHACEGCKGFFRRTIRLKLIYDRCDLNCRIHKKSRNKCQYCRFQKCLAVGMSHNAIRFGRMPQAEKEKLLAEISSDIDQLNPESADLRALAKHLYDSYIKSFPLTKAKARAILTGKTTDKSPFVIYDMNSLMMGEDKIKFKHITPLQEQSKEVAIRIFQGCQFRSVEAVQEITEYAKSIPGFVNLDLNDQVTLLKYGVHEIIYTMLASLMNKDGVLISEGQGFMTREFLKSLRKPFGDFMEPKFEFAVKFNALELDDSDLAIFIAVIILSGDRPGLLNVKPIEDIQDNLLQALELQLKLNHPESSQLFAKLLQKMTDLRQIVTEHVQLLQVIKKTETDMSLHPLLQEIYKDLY

[4] = biological target: T4, Bile acid receptor (Homo sapiens) (UniProt Q96RI1); assay: Transactivation of human FXR expressed in human HeLa cells at 30 uM incubated for 24 hrs by luciferase reporter gene assay; assay type: cell-based
T4 sequence (whole entry): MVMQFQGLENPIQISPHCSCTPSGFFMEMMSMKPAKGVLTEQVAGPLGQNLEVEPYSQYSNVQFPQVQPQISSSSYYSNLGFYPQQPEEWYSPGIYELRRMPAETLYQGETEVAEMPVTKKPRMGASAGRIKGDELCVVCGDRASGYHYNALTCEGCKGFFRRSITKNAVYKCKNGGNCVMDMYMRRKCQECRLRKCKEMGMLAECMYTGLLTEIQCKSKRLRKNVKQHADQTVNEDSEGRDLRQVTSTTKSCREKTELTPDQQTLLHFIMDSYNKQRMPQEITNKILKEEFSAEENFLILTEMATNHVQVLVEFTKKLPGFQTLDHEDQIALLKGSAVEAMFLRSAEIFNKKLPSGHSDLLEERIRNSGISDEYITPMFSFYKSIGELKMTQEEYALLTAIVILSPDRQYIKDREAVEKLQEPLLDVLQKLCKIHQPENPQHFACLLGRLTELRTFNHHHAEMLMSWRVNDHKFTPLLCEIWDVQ

[5] = biological target: T2, Peroxisome proliferator-activated receptor delta (Homo sapiens); assay: Transactivation of Gal4-tagged PPARdelta ligand binding domain (unknown origin) expressed in COS7 cells measured after overnight incubation by luciferase reporter gene assay relative to L165,041; assay type: cell-based; settings: Chlorocebus aethiops; COS-7
[6] = biological target: T5, Peroxisome proliferator-activated receptor gamma (Homo sapiens, UniProt P37231); assay: Transactivation of Gal4-tagged PPARgamma ligand binding domain (unknown origin) expressed in COS7 cells measured after overnight incubation by luciferase reporter gene assay; assay type: cell-based, COS-7
T5 sequence (P37231 whole entry): T3 sequence (whole entry)

[7] = biological target: T6, Peroxisome proliferator-activated receptor delta (Homo sapiens, UniProt Q03181); assay: Transactivation of Gal4-tagged PPARdelta ligand binding domain (unknown origin) expressed in COS7 cells measured after overnight incubation by luciferase reporter gene assay; assay type: cell-based, COS-7
T6 sequence (Q03181 whole entry): T2 sequence (whole entry)

[8] = biological target: T4, Bile acid receptor (Homo sapiens); assay: Transactivation of human FXR expressed in human HeLa cells incubated for 24 hrs by luciferase reporter gene assay relative to GW4064; assay type: cell-based
[9] = biological target: T3, Peroxisome proliferator-activated receptor gamma (Homo sapiens); assay: Transactivation of Gal4-tagged PPARgamma ligand binding domain (unknown origin) expressed in COS7 cells measured after overnight incubation by luciferase reporter gene assay relative to piaglitazone; assay type: cell-based; settings: Chlorocebus aethiops; COS-7
[10] = biological target: T7, Peroxisome proliferator-activated receptor alpha (Homo sapiens, UniProt Q07869); assay: Transactivation of Gal4-tagged PPARalpha ligand binding domain (unknown origin) expressed in COS7 cells measured after overnight incubation by luciferase reporter gene assay; assay type: cell-based, COS-7
T7 sequence (Q07869 whole entry): T1 sequence (whole entry)

| Structure (SMILES) | Activity [1] | Activity [2] | Activity [3] | Activity [4] | max activation [5] [%] | EC50 [6] [µM] | EC50 [7] [µM] | max activation [8] [%] | max activation [9] [%] | EC50 [10] [µM] |
| --- | --- | --- | --- | --- | --- | --- | --- | --- | --- | --- |
| CC(C)(C)c1ccc(C(=O)Nc2c(Cl)cccc2C(=O)Nc2cccc(C(=O)O)c2)cc1 | inactive | inactive | inactive | inactive |  |  |  |  |  |  |
| CC(C)(C)c1ccc(C(=O)Nc2ccccc2C(=O)Nc2cccc(CC(=O)O)c2)cc1 |  |  |  |  | 46 | 6.2 | 5.4 | 26 | 121 | 4.4 |
| COc1ccc(NC(=O)c2ccccc2NC(=O)c2ccc(C(C)(C)C)cc2)cc1C(=O)O |  | inactive |  |  |  | 4.4 |  | 19 | 96 | 0.74 |
| O=C(O)c1cccc(NC(=O)c2c(Cl)cccc2NC(=O)c2ccc(C(F)(F)F)cc2)c1 | inactive | inactive | inactive | inactive |  |  |  |  |  |  |
| COc1ccc(C(=O)O)cc1NC(=O)c1ccccc1NC(=O)c1ccc(C(C)(C)C)cc1 |  | inactive |  |  |  | 4.5 |  | 15 | 154 | 2.9 |
| O=C(O)c1cccc(NC(=O)c2ccccc2NC(=O)c2ccc3c(c2)OCO3)c1 |  | inactive |  |  |  | 25 |  | 12 | 221 | 19 |
| COc1cccc(NC(=O)c2ccccc2NC(=O)c2ccc(C(C)(C)C)cc2)c1 | inactive | inactive | inactive |  |  |  |  | 13 |  |  |
| CC(C)(C)c1ccc(C(=O)Nc2ccccc2C(=O)Nc2ccc(Cl)c(C(=O)O)c2)cc1 |  | inactive |  |  |  | 5.4 |  | 19 | 98 | 9.1 |
| COc1ccc(C(=O)Nc2ccccc2C(=O)Nc2cccc(CC(=O)O)c2)cc1OC | inactive | inactive | inactive | inactive |  |  |  |  |  |  |
| CC(C)(C)c1ccc(C(=O)Nc2ccccc2C(=O)Nc2cccc(C(=O)O)c2)cc1 |  | inactive |  |  |  | 3.9 |  | 9.4 | 348 | 1.3 |
| CC(C)(C)c1ccc(C(=O)Nc2ccccc2C(=O)Nc2cccc(C#N)c2)cc1 | inactive | inactive | inactive |  |  |  |  | 18 |  |  |
| O=C(O)c1cccc(NC(=O)c2ccccc2NC(=O)c2ccc(C(F)(F)F)c(F)c2)c1 |  |  |  |  | 37 | 6.9 | 3 | 32 | 240 | 2.2 |
| O=C(O)c1cccc(NC(=O)c2ccccc2NC(=O)c2ccc(C(F)(F)F)cc2)c1 |  |  |  |  | 46 | 8.5 | 3.2 | 26 | 384 | 5.8 |
| CC(C)(C)c1ccc(C(=O)Nc2ccccc2C(=O)Nc2ccc(Br)c(C(=O)O)c2)cc1 |  | inactive |  |  |  | 6.3 |  | 16 | 82 | 4.1 |
| Cc1c(NC(=O)c2ccccc2NC(=O)c2ccc(C(C)(C)C)cc2)cccc1C(=O)O | inactive | inactive |  |  |  | 13.5 |  | 19 | 70 |  |

Results, then the molecule that gave them:

| Activity [1] | Activity [2] | Activity [3] | Activity [4] | max activation [5] [%] | EC50 [6] [µM] | EC50 [7] [µM] | max activation [8] [%] | max activation [9] [%] | EC50 [10] [µM] | Structure (SMILES) |
| --- | --- | --- | --- | --- | --- | --- | --- | --- | --- | --- |
| inactive | inactive | inactive | inactive |  |  |  |  |  |  | CN(CCCC(=O)O)C(=O)c1ccccc1NC(=O)c1ccc2ccccc2c1 |
| inactive | inactive | inactive | inactive |  |  |  |  |  |  | O=C(O)CCCNC(=O)c1ccccc1NC(=O)C(c1ccccc1)c1ccccc1 |
|  |  |  |  | 44 | 4.5 | 12 | 14.3 | 58 | 3.6 | O=C(O)c1cccc(NC(=O)c2ccccc2NC(=O)c2ccc(Br)cc2)c1 |
| inactive | inactive | inactive | inactive |  |  |  |  |  |  | CN(C(=O)c1ccc2ccccc2c1)c1ccccc1C(=O)NCCCC(=O)O |
| inactive | inactive |  |  |  | 21 |  |  | 639 |  | O=C(O)c1ccc(NC(=O)c2ccccc2NC(=O)c2ccc3ccccc3c2)cc1 |
| inactive | inactive |  | inactive |  | 23 |  |  | 45 |  | O=C(O)CCCNC(=O)c1ccccc1NC(=O)c1ccccc1-c1ccccc1 |
| inactive | inactive |  | inactive |  | 13 |  |  | 135 |  | O=C(O)CCCNC(=O)c1ccccc1NC(=O)c1ccc(-c2ccccc2)cc1 |
|  |  |  |  | 51 | 5.5 | 4.7 |  | 126 | 1.96 | O=C(O)c1cccc(NC(=O)c2ccccc2NC(=O)c2ccc3ccccc3c2)c1 |
| inactive | inactive |  |  |  | 26 |  |  | 269 |  | O=C(O)CCCCNC(=O)c1ccccc1NC(=O)c1ccc2ccccc2c1 |
| inactive | inactive |  |  |  | 18.1 |  |  | 432 |  | O=C(O)CCCNC(=O)c1ccccc1NC(=O)c1ccc2ccccc2c1 |
| inactive | inactive | inactive |  |  |  |  |  |  |  | CC(C)(C)c1ccc(C(=O)Nc2ccccc2C(=O)NCCCC(=O)O)cc1 |
| inactive | inactive | inactive | inactive |  |  |  |  |  |  | N#Cc1ccc(C(=O)Nc2ccccc2C(=O)Nc2cccc(CC(=O)O)c2)cc1 |
|  | inactive |  | inactive |  | 37 |  |  | 229 | 10 | O=C(O)CCCNC(=O)c1ccccc1NC(=O)c1cccc(-c2ccccc2)c1 |
